PubChem BioAssay AID256 (DTP/NCI, 2004)
Where “and” joins values, the source holds several entries; their conditions need not be identical. Equal values may be shown once. Toxic doses and inconclusive results are not listed. Rule for the calls: active = survival T/C of 150% or more; inactive = T/C below 125% in these data.

Test system: CD2F1 mice, L1210 leukemia ip, survival T/C
Assay: NCI In Vivo Anticancer Drug Screen. Data for tumor model L1210 Leukemia (intraperitoneal) in CD2F1 (CDF1) mice
Conditions: higher = longer survival
Outline: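 Ratio T/C, where T is the treated-group value and C the vehicle-dosed control value, from mice implanted with a transplantable tumor.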

[1] = endpoint: mean survival time, dose: 100.0 mg/kg/injection, schedule: Q01DX001 (ip), vehicle: saline with Tween-80
[2] = endpoint: mean survival time, dose: 200.0 mg/kg/injection, schedule: Q01DX001 (ip), vehicle: saline with Tween-80
[3] = endpoint: mean survival time, dose: 400.0 mg/kg/injection, schedule: Q01DX001 (ip), vehicle: saline with Tween-80
[4] = endpoint: mean survival time, dose: 100.0 mg/kg/injection, schedule: Q01DX009 (ip), vehicle: saline with Tween-80
[5] = endpoint: mean survival time, dose: 100.0 mg/kg/injection, schedule: Q04DX003 (ip), vehicle: saline with Tween-80
[6] = endpoint: mean survival time, dose: 200.0 mg/kg/injection, schedule: Q04DX003 (ip), vehicle: saline with Tween-80
[7] = endpoint: mean survival time, dose: 200.0 mg/kg/injection, schedule: Q01DX009 (ip), vehicle: saline with Tween-80
[8] = endpoint: mean survival time, dose: 400.0 mg/kg/injection, schedule: Q01DX009 (ip), vehicle: saline with Tween-80
[9] = endpoint: mean survival time, dose: 400.0 mg/kg/injection, schedule: Q04DX003 (ip), vehicle: saline with Tween-80

Measured: T/C

O=NNc1cccnc1
inactive: endpoint: median survival time, dose: 6.25 mg/kg/injection, schedule: Q01DX009 (ip), vehicle: water 96 % of control | endpoint: median survival time, dose: 12.5 mg/kg/injection, schedule: Q01DX009 (ip), vehicle: water 99 % of control | endpoint: median survival time, dose: 25.0 mg/kg/injection, schedule: Q01DX009 (ip), vehicle: water 99 % of control

Cc1ccc(S(=O)(=O)N(CCCc2c(C)nc(N)[nH]c2=O)Cc2cccc([N+](=O)[O-])c2)cc1
inactive: [1] 92 % of control | [2] 96 % of control | [3] 92 % of control

CCCCNC(=O)Nc1cccc2c(O)cccc12
inactive: endpoint: mean survival time, dose: 50.0 mg/kg/injection, schedule: Q01DX009 (ip), vehicle: DMSO 97 % of control

O=C1[C@H]2CCC[C@H]2[C@H]2CCC[C@@H]12
inactive: endpoint: median survival time, dose: 6.25 mg/kg/injection, schedule: Q01DX009 (ip), vehicle: saline with Tween-80 98 % of control | endpoint: median survival time, dose: 12.5 mg/kg/injection, schedule: Q01DX009 (ip), vehicle: saline with Tween-80 106 % of control | endpoint: median survival time, dose: 25.0 mg/kg/injection, schedule: Q01DX009 (ip), vehicle: saline with Tween-80 98 % of control | endpoint: median survival time, dose: 50.0 mg/kg/injection, schedule: Q01DX009 (ip), vehicle: saline with Tween-80 101 % of control | endpoint: median survival time, dose: 100.0 mg/kg/injection, schedule: Q01DX009 (ip), vehicle: saline with Tween-80 106 % of control | endpoint: median survival time, dose: 200.0 mg/kg/injection, schedule: Q01DX009 (ip), vehicle: saline with Tween-80 97 % of control

O=c1[nH]ccc2occc12
inactive: endpoint: mean survival time, dose: 50.0 mg/kg/injection, schedule: Q01DX009 (ip), vehicle: saline with Tween-80 101 % of control | [4] 102 % of control | [5] 105 % of control | [6] 109 % of control

CCCCN(CCCC)CCC(=O)OCC
inactive: [4] 101 % of control | [7] 95 % of control | [8] 112 % of control

CCOC1C=CCCC1 (centres undefined)
inactive: [4] 95 % of control | [5] 97 % of control | [7] 95 % of control | [6] 93 % of control | [9] 97 % of control

CCOC(=O)CCCCCSc1n[nH]c(=O)[nH]c1=O
inactive: endpoint: mean survival time, dose: 12.5 mg/kg/injection, schedule: Q01DX005 (ip), vehicle: distilled water + Tween-80 102 % of control | endpoint: mean survival time, dose: 25.0 mg/kg/injection, schedule: Q01DX005 (ip), vehicle: distilled water + Tween-80 103 % of control | endpoint: mean survival time, dose: 50.0 mg/kg/injection, schedule: Q01DX005 (ip), vehicle: distilled water + Tween-80 92 % of control | endpoint: mean survival time, dose: 100.0 mg/kg/injection, schedule: Q01DX005 (ip), vehicle: distilled water + Tween-80 102 % of control | endpoint: mean survival time, dose: 200.0 mg/kg/injection, schedule: Q01DX005 (ip), vehicle: distilled water + Tween-80 102 % of control

COC(=O)CC1(C(=O)OC)Nc2ccc(Br)cc2C(=O)O1 (centres undefined)
inactive: [1] 96 % of control | [2] 96 % of control | [3] 94 % of control

CC(C)[CH2][Sn]([CH2]C(C)C)([CH2]C(C)C)[O]C(=O)C1(C)CCCC2(C)C3CCC(C(C)C)=CC3=CCC12 (centres undefined)
inactive: endpoint: mean survival time, dose: 3.12 mg/kg/injection, schedule: Q01DX009 (ip), vehicle: saline with Tween-80 97 % of control | endpoint: mean survival time, dose: 6.25 mg/kg/injection, schedule: Q01DX009 (ip), vehicle: saline with Tween-80 90 % of control | endpoint: mean survival time, dose: 12.5 mg/kg/injection, schedule: Q01DX009 (ip), vehicle: saline with Tween-80 93 % of control

O=C(Nc1ccccc1)Nc1ccccc1C(=O)O
inactive: [1] 100 % of control | [2] 95 % of control | [3] 94 % of control

C=C1C(=O)OCC2(CC)CCCCC12 (centres undefined)
inactive: endpoint: mean survival time, dose: 5.0 mg/kg/injection, schedule: Q01DX009 (ip), vehicle: water 94 % of control | endpoint: mean survival time, dose: 10.0 mg/kg/injection, schedule: Q01DX009 (ip), vehicle: water 88 % of control | endpoint: mean survival time, dose: 20.0 mg/kg/injection, schedule: Q01DX009 (ip), vehicle: water 96 % of control

COc1ccc(NC(=O)CCC(=O)Oc2ccccc2)cc1
inactive: [4] 94 % of control | [5] 100 % of control | [7] 97 % of control | [6] 100 % of control | [8] 94 % of control | [9] 94 % of control

COC(=O)C1C=CCC=C1OC (centres undefined)
inactive: [4] 113 % of control | [7] 104 % of control | [8] 109 % of control

CCOC(=O)c1cnc(SCc2ccccc2)nc1N
inactive: [4] 92 % of control | [5] 100 % of control | [7] 94 % of control | [6] 100 % of control | [8] 96 % of control | [9] 97 % of control

CC1(C)OC2C(/C=N\O)OC(n3cnc4c(N)ncnc43)C2O1 (centres undefined)
inactive: endpoint: median survival time, dose: 12.5 mg/kg/injection, schedule: Q01DX005 (ip), vehicle: distilled water + Tween-80 98 % of control | endpoint: median survival time, dose: 25.0 mg/kg/injection, schedule: Q01DX005 (ip), vehicle: distilled water + Tween-80 90 % of control | endpoint: median survival time, dose: 50.0 mg/kg/injection, schedule: Q01DX005 (ip), vehicle: distilled water + Tween-80 96 % of control | endpoint: median survival time, dose: 100.0 mg/kg/injection, schedule: Q01DX005 (ip), vehicle: distilled water + Tween-80 101 % of control | endpoint: median survival time, dose: 200.0 mg/kg/injection, schedule: Q01DX005 (ip), vehicle: distilled water + Tween-80 101 % of control

N#C/C=C/C#N
inactive: endpoint: mean survival time, dose: 0.15 mg/kg/injection, schedule: Q01DX009 (ip), vehicle: saline 105 % of control | endpoint: mean survival time, dose: 0.3 mg/kg/injection, schedule: Q01DX009 (ip), vehicle: saline 102 % of control | endpoint: mean survival time, dose: 0.6 mg/kg/injection, schedule: Q01DX009 (ip), vehicle: saline 102 % of control

O=C(O)c1c(F)c(F)c(F)c(C(=O)O)c1F
inactive: endpoint: mean survival time, dose: 12.5 mg/kg/injection, schedule: Q01DX009 (ip), vehicle: saline 89 % of control | endpoint: mean survival time, dose: 25.0 mg/kg/injection, schedule: Q01DX009 (ip), vehicle: saline 95 % of control | endpoint: mean survival time, dose: 25.0 mg/kg/injection, schedule: Q04DX003 (ip), vehicle: saline 89 % of control | endpoint: mean survival time, dose: 50.0 mg/kg/injection, schedule: Q01DX009 (ip), vehicle: saline 95 % of control | endpoint: mean survival time, dose: 50.0 mg/kg/injection, schedule: Q04DX003 (ip), vehicle: saline 88 % of control | [5] 93 % of control

CC1(C)N=C(N)N=C(N)N1c1cccc(/C=C/c2ccc([N+](=O)[O-])cc2)c1
inactive: endpoint: mean survival time, dose: 100.0 mg/kg/injection, schedule: Q04DX002 (ip), vehicle: Klucel (hydroxypropylcellulose) (HPC) 103 % of control | endpoint: mean survival time, dose: 200.0 mg/kg/injection, schedule: Q04DX002 (ip), vehicle: Klucel (hydroxypropylcellulose) (HPC) 107 % of control | endpoint: mean survival time, dose: 400.0 mg/kg/injection, schedule: Q04DX002 (ip), vehicle: Klucel (hydroxypropylcellulose) (HPC) 95 % of control

O=C1NC23C(=O)N(C4CCCCC4)CC2(Cc2ccccc2)c2ccccc2N3C1=O (centres undefined)
inactive: [1] 86 % of control | [2] 92 % of control | [3] 86 % of control

CC(O)COCCOCCO (centres undefined)
inactive: endpoint: mean survival time, dose: 100.0 mg/kg/injection, schedule: Q01DX009 (ip), vehicle: saline 100 % of control | endpoint: mean survival time, dose: 200.0 mg/kg/injection, schedule: Q01DX009 (ip), vehicle: saline 103 % of control | endpoint: mean survival time, dose: 400.0 mg/kg/injection, schedule: Q01DX009 (ip), vehicle: saline 100 % of control

Nc1nc2c(ncn2-c2ccc(OCCNC(=O)Nc3cc(S(=O)(=O)F)ccc3Cl)cc2)c(=O)[nH]1 (tested in a mixture with another compound)
inactive: endpoint: mean survival time, dose: 75.0 mg/kg/injection, schedule: Q01DX001 (ip), vehicle: saline with Tween-80 92 % of control | endpoint: mean survival time, dose: 150.0 mg/kg/injection, schedule: Q01DX001 (ip), vehicle: saline with Tween-80 95 % of control

COC1OC(Nc2nc(SC)[nH]c(=O)c2C(C)=O)C(O)C(O)C1O (centres undefined)
inactive: endpoint: median survival time, dose: 12.5 mg/kg/injection, schedule: Q01DX005 (ip), vehicle: saline with Tween-80 98 % of control | endpoint: median survival time, dose: 25.0 mg/kg/injection, schedule: Q01DX005 (ip), vehicle: saline with Tween-80 97 % of control | endpoint: median survival time, dose: 50.0 mg/kg/injection, schedule: Q01DX005 (ip), vehicle: saline with Tween-80 94 % of control | endpoint: median survival time, dose: 100.0 mg/kg/injection, schedule: Q01DX005 (ip), vehicle: saline with Tween-80 95 % of control | endpoint: median survival time, dose: 200.0 mg/kg/injection, schedule: Q01DX005 (ip), vehicle: saline with Tween-80 97 % of control

C[Si](C)(C)OC1(C#N)C=CC(=O)C=C1
inactive: endpoint: mean survival time, dose: 1.56 mg/kg/injection, schedule: Q01DX001 (ip), vehicle: saline with Tween-80 103 % of control | endpoint: mean survival time, dose: 3.13 mg/kg/injection, schedule: Q01DX001 (ip), vehicle: saline with Tween-80 100 % of control | endpoint: mean survival time, dose: 6.25 mg/kg/injection, schedule: Q01DX001 (ip), vehicle: saline with Tween-80 92 % of control and 95 % of control

O=C(CCBr)c1ccc(Cl)cc1
inactive: endpoint: mean survival time, dose: 100.0 mg/kg/injection, schedule: Q01DX009 (ip), vehicle: saline sonified 97 % of control

c1cc2c(ncn3nnnc23)[nH]1
inactive: endpoint: mean survival time, dose: 25.0 mg/kg/injection, schedule: Q01DX009 (ip), vehicle: Klucel (hydroxypropylcellulose) (HPC) 91 % of control | endpoint: mean survival time, dose: 50.0 mg/kg/injection, schedule: Q01DX009 (ip), vehicle: Klucel (hydroxypropylcellulose) (HPC) 99 % of control | endpoint: mean survival time, dose: 100.0 mg/kg/injection, schedule: Q01DX009 (ip), vehicle: Klucel (hydroxypropylcellulose) (HPC) 86 % of control
